# Values joined by “and” are separate entries in the source; they are usually repeats but may differ in a detail not shown here. Equal values may be shown once.
# Assays:
# CRL2631 cells = assay: Collagen invasion 3D assay, CRL2631 cells; assay type: cell-based, human; details: 10 uM Rifabutin in collagen matrix, 24 hours
# Method: The effects of rifabutin on cell invasion was assessed in a collagen invasion 3D assay. Increased interest in the use of 3D culture systems has been motivated by accumulating evidence that 3D models better reflect the microenvironment of tumors and metastases and more accurately predict therapeutic response in vivo compared with conventional 2D assays. A collagen invasion 3D assay allows the rapid and quantitative assessment of invasiveness and a means to screen for drugs which alter the invasive phenotype of tumor cells.
# The CHOP-resistant G3 cell line is much more invasive in a collage invasion 3D assay than its CHOP-sensitive parent cell line (CRL2631). Collagen matrices (1 mg/ml) were prepared as previously described in Su, S. C., et al., Molecular profile of endothelial invasion of three-dimensional collagen matrices: insights into angiogenic sprout induction in wound healing. Am. J. Physiol. […] Cell invasion density was quantified by counting fixed cultures under transmitted light using an Olympus CK2 inverted microscope equipped with eyepieces displaying a 10×10 ocular grid. For each condition, four random fields were selected and the number of invading cells per high power field (HPF) was counted manually at 10× magnification, corresponding to 1 mm^2 area. […]
# [1] = tested on: G3 CHOP-resistant NHL cells
# Method: In a first efficacy study, 6-8 week old female SCID mice (7 mice per treatment arm) were injected subcutaneously on both flanks with 1×10^7 G3 CHOP-resistant NHL cells. Once palpable tumors (about […] size) appeared, therapies (CHOP or CHOP+rifabutin) were started. CHOP was administered at the maximum tolerated dose (cyclophosphamide, 40 mg/kg i.v.; doxorubicin, 3.3 mg/kg i.v.; vincristine, 0.5 mg/kg i.v.; and prednisone, 0.2 mg/kg orally daily for 5 d) weekly for 3 weeks. Rifabutin in an amount of 100 mg/kg was administered on the day of each CHOP treatment and 24-hours later by gavage. Mouse body weight and tumor size were monitored every two days and tumor size measured by caliper. The tumor volume formula (L*W*W)/2 was used to calculate tumor mass.
# A second efficacy study was conducted where mice were treated before the appearance of palpable tumors. In that experiment, one week after transplantation of CHOP-resistant G3 cells, one group (7 mice) was treated with CHOP-only and a second group (8 mice) was treated with CHOP+rifabutin.
# A third study was conducted in which mice injected with CHOP-resistant G3 cells received reduced dosages of CHOP in combination with 33 mg/kg rifabutin. CHOP+rifabutin was administered weekly beginning one week post-inoculation. Control mice were given no CHOP or rifabutin.
# SCID mice were injected with CHOP-resistant G3 cells in the same manner as the first efficacy study above. Treatments began 2 weeks post-inoculation and were administered twice weekly.
# [2] = cited from earlier work
# G3 cells = assay: Modified Boyden chamber invasion assay, G3 cells; assay type: cell-based, human; details: 10 μM rifabutin 24 hours; DMSO 170,374
# Method: A modified Boyden chamber assay was used as an independent method to evaluate rifabutin's ability to suppress invasion/metastasis. […] Cell invasion was assessed with a Chemicon QCM Collagen Invasion Assay (Millipore). The assay is a 96-well plate assay wherein each well is equipped with a suspended insert. Inserts contain an 8-micron membrane coated with a thin layer of polymerized collagen. Invading cells migrate through the collagen layer and attach to the bottom of the membrane. Cells were detached from the membrane and lysed prior to detection via CyQuant dye. Fluorescence intensity is proportional to number of invading cells. […] In CRL2631 cells RLU decreases from 39,356 to 27,432 RLU in the presence of rifabutin (p<0.05).
# [3] = tested on: human ovarian cancer cell line SK-OV-3; assay: SK-OV-3 xenograft efficacy study in SCID mice; assay type: in vivo
# Method: In a fifth efficacy study, we generated xenografts of the human ovarian cancer cell line SK-OV-3, a cell line considered doxorubicin-resistant, by bilateral subcutaneous (s.c.) injection of 1×10^7 tumor cells to establish localized tumors in 6-8 week old female SCID mice. Using rifabutin co-administered with DOX, in vivo efficacy was assessed. […] Cycles of Dox or Dox+rifabutin were given once a week for 4 cycles. This cyclical dosing scheme of mouse models has precedent in the literature and is intended to mimic the cycles of DOXIL® (Centocor Ortho Biotech Products, LP, Raritan, N.J.) given in the clinic. Rifabutin was administered on the day of each DOX treatment and by gavage. Mouse body weight and tumor size were monitored.
# [4] = tested on: lymphoma aspirate from a dog with CHOP-resistant lymphoma; assay: CHOP responsiveness of dog lymphoma aspirate (resazurin); assay type: cell-based
# Method: A single lymphoma aspirate from a dog with CHOP-resistant lymphoma was tested for responsiveness to CHOP in the presence or absence of rifabutin. CHOP-responsiveness was measured by a decrease in fluorescence signal generated by resazurin.
smiles,measurement,setting,value
"CO[C@H]1/C=C/O[C@@]2(C)Oc3c(C)c(O)c4c(c3C2=O)C2=NC3(CCN(CC(C)C)CC3)NC2=C(NC(=O)/C(C)=C\C=C\[C@H](C)[C@H](O)[C@@H](C)[C@@H](O)[C@@H](C)[C@H](OC(C)=O)[C@@H]1C)C4=O [Rifabutin, rifabutin]",reduction of invasion,CRL2631 cells,Less of this effect
same,overall tumor burden per mouse,"[1]; first study, rifabutin 100 mg/kg by gavage with CHOP at maximum tolerated dose weekly for 3 weeks, versus CHOP only",much lower
same,toxicity of the rifabutin dosage in the mice,"[1]; mouse, in vivo",little or not toxicity
same,injection sites that developed tumors,"[1]; second study, treated before palpable tumors, CHOP+rifabutin group, 6 of 16 sites",37.5%
same,tumor load,"[1]; third study, reduced dosages of CHOP with 33 mg/kg rifabutin weekly, versus untreated mice",significantly less
same,initial half-life,[2]; biphasic plasma elimination,approximately 4 hours
same,mean terminal half-life,[2]; biphasic plasma elimination,45 (±17) hours
same,mean (±SD) peak plasma concentration (Cmax),[2]; single oral dose of 300 mg,375 (±267) ng/mL
same,relative fluorescence (invading cells),G3 cells,"114,395 RLU"
same,average tumor volume,"[3]; after 19 days treatment, DOX 3.3 mg/kg i.v. + rifabutin 25 mg/kg oral weekly",348 mm^3
same,reduction in tumor size versus DOX-only,"[3]; after 19 days, DOX 3.3 mg/kg i.v. + rifabutin 25 mg/kg oral",40%
same,CHOP dose giving significant growth inhibition,[4]; CHOP with 5 μM rifabutin,320 ng/mL and 640 ng/mL
same,cell viability in the absence of CHOP,[4]; rifabutin alone,no effect on cell viability
